Source: patent US20160046665A1, “Peptide Ligand with Antibody Selectivity and the Application Thereof” (National Central University, priority 2014, published 2016)
“Also recorded” adds a separate entry of the source.

What was measured:
Format in all cases: binding
[1] = system: PSA; assay: SPR sensitivity detection with micro concentration antigen, chip with Rabbit IgG; details: Rabbit IgG absorbed on chip, Rabbit IgG flowed again for increasing signal, FIG. 7A
Text: In the following experiments, antigen in micro concentration is employed for detecting the sensitivity of peptide ligand chips being able to recognize Rabbit IgG and Mouse IgG2a, and the experimental results are shown in FIG. 7A and FIG. 7B.
Firstly, Rabbit IgG and Mouse IgG2a are respectively absorbed to GGEGELW and GGRRGW. After flowing micro concentration antigen through, Rabbit IgG and Mouse IgG2a are flowed through the chip surface for increasing the detected signal. […] According to FIG. 7A and FIG. 7B, the signal of about 2 ng/mL PSA can be detected from Mouse IgG2a of GGRRGW chip surface, and the signal of about 1 ng/mL PSA can be detected from Rabbit IgG of GGEGELW chip surface. Therefore, it proves that the peptide ligand of this specification can efficiently improve the antigen sensitivity.

[2] = system: Rabbit IgG; assay: SPR absorption of Rabbit IgG on different chip surfaces
Text: (§1) In this and the following examples, we employ Surface Plasmon resonance (SPR) as detecting equipment. The method for modifying SPR chip surface is briefly illustrated as following.
(§2) OEG [(11-Mercaptoundecyl)tetra(ethyleneglycol)] and OEG-COOH [HS(CH2)11(EG)6OCH2COOH] are mixed at the ratio of 10:1. Through strong gold-sulfur bonding, OEG and OEG-COOH are employed for modifying SPR chip surface to form mixed SAM (self-assembly monolayer). The mixed SAM surface comprises carboxyl group with negative charge, and hydroxyl group with hydrophilicity. The carboxyl group with negative charge on the SPR chip surface can be activated by EDC/20% DMSO. By reacting the 1° amino group of EDA (ethylenediamine) with the carboxyl group on the SPR chip surface to form amide bonding, the SPR chip surface can be modified into positive charge. And, in the same condition, the peptide ligand according to this invention can be grafted onto the SPR chip surface to form a peptide ligand surface.)
(§3) 1. 5 mM peptide ligand, 200 mM EDC, and 20% DMSO are prepared into 0.1 M pH=6.0 MES buffer solution.
(§4) In this example, SPR is employed for measuring the absorption of target antibody, rabbit immunoglobulin (Rabbit IgG), and target antigen, prostate specific antigen (PSA), on different charge surfaces and different peptide ligand surfaces. The mentioned different chip surfaces are employed for absorbing Rabbit IgG, washed with phosphate buffer (PB) solution, and employed to absorb PSA directly. Then, PB buffer solution is used to wash out the PSA not recognized by Rabbit IgG for measuring the absorption of antibody and antigen. The experimental process is roughly shown as following.
(§5) 1. 10 μg/mL Rabbit IgG is prepared in 0.01 M pH=7.4 PB buffer solution.
3. […]
(§6) In the above experiments, Surface Plasmon Resonance (SPR) is employed for measuring the antigen recognition efficiency of antibody on different modified chip surfaces. The recognition efficiency of Rabbit IgG and PSA on different chip with different charge surface and different peptide ligand is detected. […]

[3] = system: Mouse IgG2a; assay: SPR absorption of Mouse IgG2a on different chip surfaces; details: FIG. 2
Text: as §1, §2, §3, §6

[4] = system: prostate specific antigen (PSA); assay: SPR PSA absorption / antigen recognition on chip surfaces with Rabbit IgG; details: FIG. 4A
Text: as §4, §5
2. 5 μg/mL PSA is prepared in 0.01 M pH=7.4 PB buffer solution.
3. The negative charge, positive charge, and peptide ligand modified chips are put on SPR respectively.
4. The flow rate is set at 20 μL/min.
5. Rabbit IgG, PB, PSA, and PB are flowed through the channel in sequence. The absorption time is about 60 minutes, and the desorption time is about 50 minutes.
(§7) Different chips with Rabbit IgG and Mouse IgG2a are used for PSA absorption experiment, and the PSA absorption is transferred to protein absorption by the above-mentioned formula, as shown in FIG. 3A and FIG. 3B.
(§8) In order to compare antigen recognition efficiency, we define “antigen recognition efficiency” as following: […]

[5] = system: prostate specific antigen (PSA); assay: SPR PSA absorption / antigen recognition on chip surfaces with Mouse IgG2a
Text: as §4, §7, §8

[6] = system: Mouse IgG2a; assay: SPR analysis of antibody oriented immobilization (orientation factor), Mouse IgG2a; details: ratio of PSA and 2nd antibody, FIG. 6B
Target sequence in this assay (P01863 98-330 limits assumed): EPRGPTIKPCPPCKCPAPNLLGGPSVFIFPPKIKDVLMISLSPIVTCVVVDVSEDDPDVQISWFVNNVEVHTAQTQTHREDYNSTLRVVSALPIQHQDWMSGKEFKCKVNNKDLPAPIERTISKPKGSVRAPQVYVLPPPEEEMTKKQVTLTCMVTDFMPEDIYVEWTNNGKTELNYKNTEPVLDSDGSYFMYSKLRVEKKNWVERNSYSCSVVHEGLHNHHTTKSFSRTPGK

Chain of Rabbit IgG (P01870 101-323 limits assumed): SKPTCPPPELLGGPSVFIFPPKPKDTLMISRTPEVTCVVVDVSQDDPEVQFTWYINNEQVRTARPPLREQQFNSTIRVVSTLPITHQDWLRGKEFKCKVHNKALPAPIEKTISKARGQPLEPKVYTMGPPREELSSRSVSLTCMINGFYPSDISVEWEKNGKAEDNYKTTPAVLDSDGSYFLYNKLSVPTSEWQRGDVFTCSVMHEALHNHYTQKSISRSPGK

Substance: GGEGELW
- PSA concentration whose signal can be detected by SPR [1]: about 1 ng/mL

Substance: RRGW
- specificity to these antibodies ([2]; Rabbit IgG versus Mouse IgG2a absorption, FIG. 1B compared with FIG. 2): does not have specificity
- Rabbit IgG absorption on chip surface (in words) ([2]; SPR, FIG. 1B): not much difference; also recorded: great
- Rabbit IgG absorption to the chip surface ([2]; SPR, peptide ligand chip surface, FIG. 3A): about 0.2 mol/cm^2
- Mouse IgG2a absorption on chip surface (in words) [3]: great; also recorded: higher
- antigen recognition efficiency of Rabbit IgG [4]: not good
- antigen recognition efficiency of Mouse IgG2a ([5]; PSA, FIG. 4B): great
- PSA absorption on chip surface with Mouse IgG2a (in words) ([5]; SPR, FIG. 3B): great
- oriented immobilization of Mouse IgG2a on chip surface ([5]; deduced from Mouse IgG2a and PSA absorption): great
- orientation factor, chip surface with Mouse IgG2a [6]: good
